# Data taken from patent US20130303737A1, “TARGETED SCHIFF BASE COMPLEXES” (NORTHWESTERN UNIVERSITY, priority 2009, published 2013).
# Tests used:
# p105 = molecular target: T1, p105 (Homo sapiens, UniProt P19838); experiment: EMSA, inhibition of p105 DNA-binding in embryo lysates; assay type: biochemical, Xenopus laevis; settings: high concentrations (150 μM per FIG. 4 legend)
# T1 construct: 5x myc; expressed in transfected cells; host or cells: Xenopus laevis embryos injected with in vitro transcribed mRNA; whole embryo lysate
# T1 sequence (P19838 1-968): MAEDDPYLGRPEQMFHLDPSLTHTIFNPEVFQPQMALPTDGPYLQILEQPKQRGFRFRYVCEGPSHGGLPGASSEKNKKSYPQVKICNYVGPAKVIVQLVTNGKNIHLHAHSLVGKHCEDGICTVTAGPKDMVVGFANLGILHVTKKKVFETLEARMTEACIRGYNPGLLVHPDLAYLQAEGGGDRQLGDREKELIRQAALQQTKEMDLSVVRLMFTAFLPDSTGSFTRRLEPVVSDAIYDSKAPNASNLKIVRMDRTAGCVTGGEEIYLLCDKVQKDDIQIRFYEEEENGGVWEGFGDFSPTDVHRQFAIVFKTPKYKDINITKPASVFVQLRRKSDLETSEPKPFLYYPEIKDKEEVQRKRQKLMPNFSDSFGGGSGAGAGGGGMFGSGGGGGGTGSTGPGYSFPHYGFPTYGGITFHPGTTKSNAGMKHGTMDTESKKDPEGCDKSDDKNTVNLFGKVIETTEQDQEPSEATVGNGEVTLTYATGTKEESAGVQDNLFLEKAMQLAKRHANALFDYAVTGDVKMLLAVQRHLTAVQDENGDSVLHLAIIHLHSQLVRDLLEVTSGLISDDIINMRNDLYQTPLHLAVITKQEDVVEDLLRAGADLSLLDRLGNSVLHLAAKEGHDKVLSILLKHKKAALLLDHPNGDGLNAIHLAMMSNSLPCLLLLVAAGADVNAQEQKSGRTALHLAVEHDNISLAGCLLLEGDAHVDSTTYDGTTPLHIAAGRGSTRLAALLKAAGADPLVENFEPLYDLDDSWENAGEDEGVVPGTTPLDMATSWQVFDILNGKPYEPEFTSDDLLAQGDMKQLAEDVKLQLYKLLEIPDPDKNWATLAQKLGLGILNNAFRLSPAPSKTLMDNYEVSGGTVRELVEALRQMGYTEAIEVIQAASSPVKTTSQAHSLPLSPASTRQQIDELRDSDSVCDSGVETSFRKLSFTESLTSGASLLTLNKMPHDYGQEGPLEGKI
# Method: (§1) (A) Lysates of blastula stage embryos (lane 1) or embryos with overexpressed Slug protein (lanes 2-6) were incubated with increasing concentrations of Co(III)-Ebox of 0, 0.01, 0.1 and 1 μM for 15 min prior to challenge with a ^32P-labeled Ebox containing Slug DNA probe for 30 min. (B) Lysates of blastula stage embryos injected with Slug, Snail or Sip1 mRNA (lanes 1-9) or Slug, p105, MitF and Lef-1 mRNA (lanes 10-21) were incubated with 0 or 1 μM Co(III)-Ebox for 15 min prior to challenge with ^32P-labeled Slug probe for 30 min and analyzed by EMSA on a native gel. […] Samples were analyzed by EMSA on a native TBE/acrylamide gel.
# (§2) Lysates of blastula stage embryos injected with Slug mRNA were incubated with increasing concentrations of Co(1II)-Schiff base of 0, 1.5, 5, 15, 50, 150 and 500 μM (lanes 2-8) for 15 min, then incubated with ^32P-labeled Slug probe for 30 min and visualized by EMSA. Lysates of embryos injected with Slug (lanes 10 and 11), p105 (lanes 13 and 14), MitF (lanes 16 and 17) or Lef-1 (lanes 19 and 20) mRNA were incubated with 0 or 150 μM Co(1II)-Schiff base for 15 min and labeled with ^32P-labeled Slug probe for 30 min. Uninjected embryos are presented in lanes 1, 9, 12, I5 and 18. Samples were separated by EMSA. […]
# Lef-1 = molecular target: T2, Lef-1 (Homo sapiens, UniProt Q9UJU2); experiment: EMSA, inhibition of Lef-1 DNA-binding in embryo lysates; assay type: biochemical, Xenopus laevis; settings: high concentrations (150 μM per FIG. 4 legend)
# T2 construct: 5x myc; expressed in transfected cells; host or cells: Xenopus laevis embryos injected with in vitro transcribed mRNA; whole embryo lysate
# T2 sequence (Q9UJU2 whole entry, species assumed): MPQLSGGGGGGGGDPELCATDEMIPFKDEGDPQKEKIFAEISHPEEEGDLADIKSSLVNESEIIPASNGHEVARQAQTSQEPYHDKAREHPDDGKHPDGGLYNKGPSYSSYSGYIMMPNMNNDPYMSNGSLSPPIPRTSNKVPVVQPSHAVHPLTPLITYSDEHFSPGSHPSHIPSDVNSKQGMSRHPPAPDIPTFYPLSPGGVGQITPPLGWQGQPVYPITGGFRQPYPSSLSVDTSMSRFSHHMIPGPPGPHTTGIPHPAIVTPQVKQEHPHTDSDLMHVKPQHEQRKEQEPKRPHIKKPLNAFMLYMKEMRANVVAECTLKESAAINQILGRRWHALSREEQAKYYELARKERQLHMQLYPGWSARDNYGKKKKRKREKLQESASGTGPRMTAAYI
# Method: as §1, §2
# Snail = experiment: E-cadherin promoter firefly luciferase reporter (Snail transcriptional repression); assay type: cell-based; settings: MDA-MB-231 cells, up to 250 nM
# Method: MDA-MB-231 metastatic breast cancer cells express Snail1 in the nucleus. A firefly luciferase plasmid with the E-cadherin promoter region was added upstream of the transcriptional start site Snail (SEE FIG. 7A). Binding of Snail to the E-boxes thereby repress luciferase transcription and therefore luciferase activity.
# Slug [1] = molecular target: T3, Slug (Xenopus laevis, UniProt Q91924); experiment: EMSA, inhibition of Slug DNA-binding in embryo lysates; assay type: biochemical; settings: relative to Co(III)-Ebox at 1 μM
# T3 construct: 5x myc; expressed in transfected cells; host or cells: Xenopus laevis embryos injected with in vitro transcribed mRNA; whole embryo lysate, stage 8 / blastula
# T3 sequence (Q91924 1-266): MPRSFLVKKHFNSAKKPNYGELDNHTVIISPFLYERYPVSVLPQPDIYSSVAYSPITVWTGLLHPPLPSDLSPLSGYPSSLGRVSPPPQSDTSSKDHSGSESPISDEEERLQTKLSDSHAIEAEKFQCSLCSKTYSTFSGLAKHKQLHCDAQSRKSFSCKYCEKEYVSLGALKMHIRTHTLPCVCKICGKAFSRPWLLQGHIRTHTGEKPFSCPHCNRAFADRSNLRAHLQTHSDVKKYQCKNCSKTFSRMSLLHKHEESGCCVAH
# Method: as §1, §2
# Slug [2] = molecular target: T3, Slug; experiment: In vivo assay: embryos injected with agent and Slug RNA, EMSA at blastula stage; settings: 10 fold excess (10 μM) injected
# Method: Pigmented and albino eggs were obtained and fertilized using standard protocol (Bellmeyer et al. (2003) Dev Cell 4(6):827-839, herein incorporated by reference in its entirety). All embryos are staged using the Niewenkoop-Faber method. Embryos were injected into one-cell at stage 1 in 0.4× modified ringer's (MR) solution with 3% Ficoll then transferred to 0.1×MR until harvesting. mRNA was transcribed in vitro using the SP6 Message Machine Kit (Ambion, Austin, Tex.). Concentrations of mRNA injected into one cell at the 2-cell stage range from 5-50 pg. XSip1 in the vector pCS2+ was obtained from A. Eisaki (Eisaki (2000) Biochem Biophys Res Commun 271(1):151-157, herein incorporated by reference in its entirety). cDNA was generated using PCR amplification and a high fidelity polymerase (Pfu; Roche, Indianapolis Ind.). cDNAs were cloned into a pCS2 variant that adds 5 myc tags to either the N- or C-terminus. All constructs were confirmed by sequencing using a ABI 3730 high-throughput DNA Sequencer.
# For in vitro assays, whole embryo lysates were prepared by lysing 5 stage 8 embryos in 100 μL of lysis buffer (1×PBS, 1% NP-40 and Complete protease inhibitor cocktail tablets; Roche, Indianapolis, Ind.). […]
substance,measurement,setting,value
[Co(III)(heptanoic acido)(acacen)(NH3)2]Cl [Co(III)-Schiff base],Inhibition of p105 DNA-binding,p105,inhibited
same,Inhibition of Lef-1 DNA-binding,Lef-1,inhibited
same,Luciferase activity of E-cadherin promoter construct (Snail transcriptional activity),Snail,did not affect
same,Excess required to achieve inhibition of Slug comparable to Co(III)-Ebox at 1 μM,Slug [1],150 fold
same,Inhibition of Slug function (DNA-binding) after injection in vivo,Slug [2],not inhibited
